Experimental data: ChEMBL document CHEMBL1201862, “PubChem BioAssay data set” (2004)
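Briefly, cells in 96-well plates were exposed to five compound concentrations for 48 h, and endpoints were estimated by linear interpolation. GI50: concentration for 50% inhibition of growth.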 Calls of active or inactive are those of the source. Rule as the data show it: active = GI50 up to about 1.1 µM and inactive = higher.

Columns and labels:
Assay in all cases: inhibition of tumour cell growth, NCI panel, 48 h
MCF7 = test system: MCF7
U-251 = test system: U-251
OVCAR-4 = test system: OVCAR-4
SNB-19 = test system: SNB-19
HT-29 = test system: HT-29
SN12C = test system: SN12C
MDA-N = test system: MDA-N
PC-3 = test system: PC-3
NCI-H522 = test system: NCI-H522
786-0 = test system: 786-0
UACC-62 = test system: UACC-62
CCRF-CEM = test system: CCRF-CEM
Malme-3M = test system: Malme-3M
SK-OV-3 = test system: SK-OV-3
SK-MEL-5 = test system: SK-MEL-5
OVCAR-8 = test system: OVCAR-8
SK-MEL-28 = test system: SK-MEL-28
Hs-578T = test system: Hs-578T
HL-60 = test system: HL-60
NCI-H460 = test system: NCI-H460

| SMILES | GI50 (MCF7) | GI50 (U-251) | GI50 (OVCAR-4) | GI50 (SNB-19) | GI50 (HT-29) | GI50 (SN12C) | GI50 (MDA-N) | GI50 (PC-3) | GI50 (NCI-H522) | GI50 (786-0) | GI50 (UACC-62) | GI50 (CCRF-CEM) | GI50 (Malme-3M) | GI50 (SK-OV-3) | GI50 (SK-MEL-5) | GI50 (OVCAR-8) | GI50 (SK-MEL-28) | GI50 (Hs-578T) | GI50 (HL-60) | GI50 (NCI-H460) |
| --- | --- | --- | --- | --- | --- | --- | --- | --- | --- | --- | --- | --- | --- | --- | --- | --- | --- | --- | --- | --- |
| Cc1ncn(-c2ccccc2O)c1C | > 100 µM (inactive) | > 100 µM (inactive) | > 100 µM (inactive) | > 100 µM (inactive) | > 100 µM (inactive) | > 100 µM (inactive) | > 100 µM (inactive) | > 100 µM (inactive) | > 100 µM (inactive) | > 100 µM (inactive) | > 100 µM (inactive) | > 100 µM (inactive) | > 100 µM (inactive) | > 100 µM (inactive) | 74.8 µM (inactive) | > 100 µM (inactive) | > 100 µM (inactive) | > 100 µM (inactive) | > 100 µM (inactive) | – |
| Cc1cc(=O)c2ccccc2n1CCCCCCCCCCn1c(C)cc(=O)c2ccccc21 | > 10 µM (inactive) | 15.6 µM (inactive) | 15.4 µM (inactive) | 18.1 µM (inactive) | 15.9 µM (inactive) | 21.4 µM (inactive) | 17.5 µM (inactive) | 28.8 µM (inactive) | 14.4 µM (inactive) | 16.4 µM (inactive) | 17.1 µM (inactive) | 12.1 µM (inactive) | 15.7 µM (inactive) | 19.3 µM (inactive) | 0.64 µM (active) | 16.8 µM (inactive) | 20.8 µM (inactive) | 23.8 µM (inactive) | 4.38 µM (inactive) | 15.7 µM (inactive) |
| CN(C)CCCNC(=O)c1cc(NS(=O)(=O)c2ccc3c(c2)C(=O)c2ccccc2C3=O)cn1C | 19.5 µM (inactive) | 29.1 µM (inactive) | 16.8 µM (inactive) | 12.8 µM (inactive) | 28.8 µM (inactive) | 29.1 µM (inactive) | 28.1 µM (inactive) | 33.3 µM (inactive) | 22.6 µM (inactive) | 28.7 µM (inactive) | 20.8 µM (inactive) | 21.5 µM (inactive) | 5.5 µM (inactive) | 92.5 µM (inactive) | 13.1 µM (inactive) | 40.3 µM (inactive) | 27.1 µM (inactive) | 76.4 µM (inactive) | 22.1 µM (inactive) | 18.8 µM (inactive) |
| COC(=O)/C=C1\C(=O)C=C2[C@@H]3C[C@H]4C[C@H](CC[C@@]4(C)N21)C3(C)NC(C)=O (some centres not stated) | 7.18 µM (inactive) | 17 µM (inactive) | 17.6 µM (inactive) | 25.9 µM (inactive) | 8.02 µM (inactive) | 11.7 µM (inactive) | 11.2 µM (inactive) | 15.1 µM (inactive) | 1.42 µM (inactive) | 3.51 µM (inactive) | 17.6 µM (inactive) | 4.4 µM (inactive) | – | 24.2 µM (inactive) | 11.1 µM (inactive) | 16.6 µM (inactive) | 3.12 µM (inactive) | 10.9 µM (inactive) | 5.55 µM (inactive) | 29.8 µM (inactive) |
| COc1ccc(Nc2nc3ccccc3nc2-c2cccs2)cc1OC | > 10 µM (inactive) | > 10 µM (inactive) | > 10 µM (inactive) | > 10 µM (inactive) | > 10 µM (inactive) | > 10 µM (inactive) | > 10 µM (inactive) | 9.35 µM (inactive) | > 10 µM (inactive) | > 10 µM (inactive) | > 10 µM (inactive) | > 10 µM (inactive) | – | > 10 µM (inactive) | > 10 µM (inactive) | > 10 µM (inactive) | > 10 µM (inactive) | > 10 µM (inactive) | > 10 µM (inactive) | > 10 µM (inactive) |
| OC1(c2ccccc2)CC2CCC(C1)N2CCCC1(c2ccc(F)cc2)OCCO1 (configuration not stated) | > 100 µM (inactive) | > 100 µM (inactive) | > 100 µM (inactive) | – | 36.5 µM (inactive) | > 100 µM (inactive) | > 100 µM (inactive) | 22.5 µM (inactive) | > 100 µM (inactive) | 18.2 µM (inactive) | > 100 µM (inactive) | 3.66 µM (inactive) | 98.4 µM (inactive) | > 100 µM (inactive) | 21.3 µM (inactive) | 16.3 µM (inactive) | 36.1 µM (inactive) | > 100 µM (inactive) | 6.78 µM (inactive) | – |
| Nc1ncnc2c1cnn2Cc1cn(COCC(O)CO)nn1 (configuration not stated) | > 100 µM (inactive) | > 100 µM (inactive) | > 100 µM (inactive) | > 100 µM (inactive) | > 100 µM (inactive) | > 100 µM (inactive) | > 100 µM (inactive) | > 100 µM (inactive) | 16.1 µM (inactive) | > 100 µM (inactive) | > 100 µM (inactive) | > 100 µM (inactive) | – | > 100 µM (inactive) | > 100 µM (inactive) | > 100 µM (inactive) | > 100 µM (inactive) | 14.4 µM (inactive) | > 100 µM (inactive) | – |
| Clc1ccc2c(NC3CCC(N4CCCCC4)CC3)ccnc2c1 (configuration not stated) | 28.8 µM (inactive) | 21 µM (inactive) | 26.5 µM (inactive) | 32.7 µM (inactive) | 11.4 µM (inactive) | 34.5 µM (inactive) | 16.7 µM (inactive) | 32.5 µM (inactive) | 20.9 µM (inactive) | 15.4 µM (inactive) | 17.9 µM (inactive) | 6.03 µM (inactive) | 20.2 µM (inactive) | 57.9 µM (inactive) | 15.2 µM (inactive) | 29.4 µM (inactive) | 18.6 µM (inactive) | 27.2 µM (inactive) | 14.5 µM (inactive) | 15 µM (inactive) |
| CCOC(=O)Cc1ccc(Nc2nc3cc(C(F)(F)F)ccc3nc2C(=O)OCC)cc1 | 94.4 µM (inactive) | 45.2 µM (inactive) | 18.9 µM (inactive) | 27.5 µM (inactive) | > 100 µM (inactive) | > 100 µM (inactive) | > 100 µM (inactive) | > 100 µM (inactive) | 50.8 µM (inactive) | 23.5 µM (inactive) | 48.8 µM (inactive) | – | > 100 µM (inactive) | 51.4 µM (inactive) | > 100 µM (inactive) | 67.5 µM (inactive) | > 100 µM (inactive) | 30 µM (inactive) | > 100 µM (inactive) | > 100 µM (inactive) |
| CN(C)C[C@H]1CC[C@@H](CN(C)C)C1=O | 1.18 µM (inactive) | 28.7 µM (inactive) | 9.23 µM (inactive) | > 50 µM (inactive) | 9.84 µM (inactive) | 8.59 µM (inactive) | 8.55 µM (inactive) | 8.63 µM (inactive) | 0.453 µM (active) | 5.68 µM (inactive) | 9.08 µM (inactive) | – | 3 µM (inactive) | > 50 µM (inactive) | 11.6 µM (inactive) | 9.08 µM (inactive) | 5.15 µM (inactive) | 18.7 µM (inactive) | 1.29 µM (inactive) | 19.5 µM (inactive) |
| CC(=O)NCc1nc(C#N)c(N)o1 | > 100 µM (inactive) | > 100 µM (inactive) | > 100 µM (inactive) | > 100 µM (inactive) | > 100 µM (inactive) | > 100 µM (inactive) | > 100 µM (inactive) | > 100 µM (inactive) | > 100 µM (inactive) | > 100 µM (inactive) | > 100 µM (inactive) | > 100 µM (inactive) | > 100 µM (inactive) | > 100 µM (inactive) | – | > 100 µM (inactive) | > 100 µM (inactive) | > 100 µM (inactive) | > 100 µM (inactive) | > 100 µM (inactive) |
| CN1CCN(c2nc3ccccc3nc2C(=O)c2ccc(Cl)cc2)CC1 | 27.7 µM (inactive) | 57.1 µM (inactive) | 58.6 µM (inactive) | > 100 µM (inactive) | 38.2 µM (inactive) | – | 36.9 µM (inactive) | 51.2 µM (inactive) | 38.1 µM (inactive) | 33.1 µM (inactive) | 28.5 µM (inactive) | 48.6 µM (inactive) | 16.7 µM (inactive) | > 100 µM (inactive) | 14.5 µM (inactive) | 69 µM (inactive) | 50.7 µM (inactive) | 56.2 µM (inactive) | 31 µM (inactive) | 27.1 µM (inactive) |
| C1CCNCC1.CN(C)c1ccc(/C=C2/NC(=S)NC2=O)cc1 | 62.4 µM (inactive) | 73.3 µM (inactive) | > 100 µM (inactive) | 86.7 µM (inactive) | 34.6 µM (inactive) | > 100 µM (inactive) | 36.3 µM (inactive) | 56.4 µM (inactive) | 65.2 µM (inactive) | > 100 µM (inactive) | 36.8 µM (inactive) | 24.9 µM (inactive) | > 100 µM (inactive) | 69.3 µM (inactive) | 30.8 µM (inactive) | 97.9 µM (inactive) | 87.3 µM (inactive) | > 100 µM (inactive) | 19.7 µM (inactive) | – |
| COC(=O)C1=C(C)C(=O)[C@]23C(CCCC[C@H]12)C(=O)[C@H](C(=O)OC)C3C (some centres not stated) | > 100 µM (inactive) | > 100 µM (inactive) | > 100 µM (inactive) | > 100 µM (inactive) | > 100 µM (inactive) | > 100 µM (inactive) | > 100 µM (inactive) | > 100 µM (inactive) | > 100 µM (inactive) | > 100 µM (inactive) | > 100 µM (inactive) | > 100 µM (inactive) | > 100 µM (inactive) | > 100 µM (inactive) | – | > 100 µM (inactive) | > 100 µM (inactive) | > 100 µM (inactive) | > 100 µM (inactive) | > 100 µM (inactive) |
